Results from patent publication US20140330261A1, “CATHETER FOR PERFORMING PHOTODYNAMIC ABLATION OF CARDIAC MUSCLE TISSUE VIA PHOTOCHEMICAL REACTION” (KEIO UNIVERSITY, priority 2010, published 2014).

Assays:
[1] = system: right ventricular tissue isolated from a Wistar rat; assay: Electrical conduction blocking via photodynamic therapy in cardiac muscle tissue extirpated from a rat (ex vivo); conditions: 4.3 μg/ml in Tyrode's perfusion fluid for 2 hours; 670.8 nm laser, 150 mW/cm^2, 3.5 J/cm^2; 5 minutes after photodynamic therapy
Description: The right ventricular tissue isolated from a Wistar rat was used as a sample. Talaporfin sodium was used as a photosensitive pigment. Talaporfin sodium was dissolved in a perfusion fluid at 4.3 μg/ml. Tyrode's solutions were used as perfusion fluids ([…] 37° C.). A semiconductor laser with a central wavelength of 670.8 nm was used as an excitation light source, and the irradiation was carried out at 150 mW/cm^2 and 3.5 J/cm^2. An experiment of electric conduction blocking in the cardiac muscle was carried out by the following procedures. 1. The heart was extirpated under deep anesthesia and the right ventricular wall was excised. 2. The excised tissue was subjected to perfusion in a Tyrode's solution comprising talaporfin sodium dissolved therein for 2 hours. 3. Three bipolar electrodes were positioned in cardiac muscle tissue. One such electrode was used for electrical stimulation (for conductance) and the two other electrodes were used for potential measurement (A and B). 4. A band-like laser beam was irradiated to the region between electrodes for potential measurement to perform photodynamic therapy. 5. Potentials at the electrodes for potential measurement A and B were measured during laser irradiation.

[2] = system: cardiac muscle tissue of the left auricle; assay: Acute experiment (open-heart surgery) using swine: verification of immediate conduction block by photodynamic therapy; assay type: in vivo; conditions: 10 mg/kg intravenously, irradiation 30 minutes after administration, 663 nm, 5.2 W/cm^2, 208 J/cm^2, irradiation line approximately 30 mm
Description: Left auricular tissue obtained from a swine (body weight: 15.4 kg) was used as a sample. Talaporfin sodium was used as a photosensitive dye, and it was administered intravenously to the swine at 10 mg/kg of the body weight. The duration until light irradiation after the administration of the photosensitive dye was 30 minutes. Light irradiation was carried out using a semiconductor laser with a central wavelength of 663 nm at a power density of 5.2 W/cm^2, an energy density of 208 J/cm^2, and a spot size of 7 mm Φ. The experiment for verification of immediate conduction block using swine was carried out in accordance with the following procedure. 1. A swine was subjected to open-heart surgery under deep anesthesia and the left auricle was exposed. 2. Three bipolar electrodes were positioned in cardiac muscle tissue of the left auricle. One such electrode was used for electrical stimulation (for conductance) and the two other electrodes were used for potential measurement (A and B). 3. Talaporfin sodium was administered intravenously at 10 mg/kg. 4. The irradiation with a band-like laser beam was carried out in a dotted manner between electrodes for potential measurement 30 minutes after administration to perform photodynamic therapy. 5. The potential of an electrode for potential measurement B was measured during laser beam irradiation. 6. […]

Compound: C=Cc1c(C)c2cc3nc(c(CC(=O)N[C@@H](CC(=O)O)C(=O)O)c4[nH]c(cc5nc(cc1[nH]2)C(C)=C5CC)c(C)c4C(=O)O)[C@@H](CCC(=O)O)[C@@H]3C [Talaporfin sodium, talaporfin sodium]
- electric conductivity of cardiac muscle tissue at the site irradiated with light after photodynamic therapy [1]: electric conductivity of cardiac muscle tissue was lost
- delay of electric conduction at electrode B after light irradiation [2]: approximately 35.5 ms
